Assay: xn = mol fraction of the nth substance listed
Conditions: 101.3 kPa, Liquid, Vibrating tube method

CCCCCCC(C)O (centres undefined) [2-octanol] + ClCCCl
mass density [kg/m3]
Conditions	288.15 K	293.15 K	298.15 K	303.15 K	308.15 K	313.15 K
x1 = 0.0499	1215.16	1208.22	1201.27	1194.29	1187.27	1180.23
x1 = 0.1	1175.12	1168.45	1161.76	1155.05	1148.31	1141.54
x1 = 0.1503	1139.01	1132.67	1126.33	1119.85	1113.38	1106.89
x1 = 0.2006	1106.43	1100.33	1094.18	1087.99	1081.76	1075.51
x1 = 0.2498	1077.37	1071.56	1065.66	1059.71	1053.73	1047.71
x1 = 0.3	–	–	–	–	1027.49	–
x1 = 0.3002	1050.06	1044.59	1038.96	1033.26	–	1021.69
x1 = 0.35	1025.54	1020.16	1014.7	1009.18	1003.62	998.027
x1 = 0.3999	1002.85	997.633	992.342	987.014	981.649	976.252
x1 = 0.4499	981.685	976.658	971.558	966.415	961.229	956.01
x1 = 0.4999	962.134	957.22	952.273	947.296	942.282	937.233
x1 = 0.5503	943.764	939.011	934.225	929.407	924.551	919.661
x1 = 0.5992	927.273	922.663	918.023	913.351	908.639	903.897
x1 = 0.6492	911.359	906.886	902.382	897.844	893.27	888.66
x1 = 0.6989	896.738	892.39	888.013	883.603	879.157	874.674
x1 = 0.7503	882.325	878.102	873.846	869.558	865.235	860.873
x1 = 0.7989	869.78	865.66	861.514	857.336	853.118	848.865
x1 = 0.8497	857.292	853.282	849.241	845.167	841.058	836.912
x1 = 0.899	845.686	841.775	837.835	833.858	829.849	825.799
x1 = 0.9492	834.672	830.858	827.012	823.127	819.211	815.252

From the NIST ThermoML archive (doi:10.1016/j.tca.2012.05.004)
